Where “and” joins values, the source holds several entries; their conditions need not be identical. Identical values can stand only once.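 Growth conditions: 96-well plates. Treatment: test compound, 48 hours, 5 concentrations. Analysis: linear interpolation between bracketing concentrations; unreached endpoints set to highest concentration. The concentration for 50% growth inhibition is given as GI50. TGI: concentration producing complete growth inhibition.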
Key:
Assay in all cases: NCI anticancer screen, dose series, 48 h
[1] = test system: KM20L2 colon
[2] = test system: LXFL 529 NSCLC
[3] = test system: DMS 114 small cell lung
[4] = test system: SNB-78 CNS
[5] = test system: XF 498 CNS
[6] = test system: M19-MEL melanoma
[7] = test system: BT-549 breast
[8] = test system: DU-145 prostate
[9] = test system: HS 578T breast
[10] = test system: MCF7 breast

How did the TGI [1] turn out when O=C(Nc1cccc([N+](=O)[O-])c1)C(=O)C(C(=O)c1ccccc1-c1ccccc1)C1OC(=O)c2ccccc21 (stereo not given) was run?
The TGI was 53.7 µM.

And the TGI [2]?
Its TGI is 27.4 µM.

And the TGI [3]?
Its TGI is 33.1 µM.

And the TGI [4]?
The TGI was greater than 100 µM.

And the TGI [5]?
The TGI was 41.4 µM.

And the TGI [6]?
Its TGI is 38.1 µM.

Which TGI [4] does the source give for COC1=CC(=O)C2C(C1=O)[C@@H]1c3ccccc3C[C@H]21 (stereo not given in full) here?
The TGI was greater than 100 µM.

And the TGI [5]?
Its TGI is greater than 100 µM.

What about the TGI [6] of the same compound?
The TGI was greater than 100 µM.

What does the source list for CC1CC#CCOC(=O)CCCC1=O (stereo not given)?
TGI [1]: > 100 µM; TGI [2]: > 100 µM; TGI [3]: > 100 µM; TGI [4]: > 100 µM; TGI [5]: > 100 µM; TGI [6]: > 100 µM

With O=C(c1ccccc1)C1CCCCN1C(=O)c1ccccc1 (stereo not given) as the compound, how does the TGI [1] read?
The TGI was greater than 100 µM.

What about the TGI [2] of the same compound?
Its TGI is greater than 100 µM.

And the TGI [3]?
Its TGI is greater than 100 µM.

And the TGI [4]?
Its TGI is greater than 100 µM.

What about the TGI [6] of the same compound?
The TGI was greater than 100 µM.

COc1ccc(-c2oc3c(OC)c(OC)c(OC)c(O)c3c(=O)c2OC)cc1OC was tested. Which TGI [7] did it give?
Its TGI is greater than 100 µM.

And the TGI [8]?
Its TGI is greater than 100 µM.

What about the TGI [9] of the same compound?
The TGI was 17.3 µM.

And the TGI [10]?
Its TGI is greater than 35.1 µM.

How did the GI50 [7] turn out when C=CCN(/C=C1/C(=O)O[C@H](COC)[C@@]2(C)C1=C(O)C(=O)C1=C2[C@H](OC(C)=O)C[C@]2(C)C(=O)CC[C@@H]12)CC=C was run?
Its GI50 is 0.141 µM.

What about the TGI [7] of the same compound?
Its TGI is 4.12 µM.

What about the GI50 [8] of the same compound?
Its GI50 is 2.43 µM.

And the TGI [8]?
Its TGI is greater than 10 µM.

And the GI50 [9]?
Its GI50 is 0.128 µM.

And the TGI [9]?
Its TGI is 1.94 µM.

What about the GI50 [10] of the same compound?
Its GI50 is 0.435 µM.

And the TGI [10]?
The TGI was greater than 10 µM.

What does the source list for OCCCOC(c1ccccc1)(c1ccccc1)c1ccccc1?
TGI [1]: > 100 µM; TGI [2]: > 100 µM; TGI [3]: > 100 µM; TGI [4]: > 100 µM; TGI [5]: > 100 µM; TGI [6]: > 100 µM

With C=C1SC(=Nc2c(C)cc(C)cc2C)N(C(=O)c2sc3ccccc3c2Cl)C12CCCCC2 as the compound, how does the GI50 [7] read?
The GI50 was greater than 100 µM.

And the TGI [7]?
The TGI was greater than 100 µM.

What about the GI50 [8] of the same compound?
The GI50 was greater than 100 µM.

And the TGI [8]?
Its TGI is greater than 100 µM.

And the GI50 [9]?
The GI50 was greater than 100 µM.

And the TGI [9]?
The TGI was greater than 100 µM.

And the GI50 [10]?
Its GI50 is greater than 100 µM.

What about the TGI [10] of the same compound?
Its TGI is greater than 100 µM.

What does the source list for CC1(C)CC[C@H](Nc2ncc(C(F)(F)F)c(-c3c[nH]c4c(P(C)(C)=O)c(C#N)ccc34)n2)CN1?
GI50 [7]: 0.0758 µM; TGI [7]: 3.67 µM; GI50 [8]: 0.52 µM; TGI [8]: > 36.4 µM; GI50 [9]: 0.736 µM; TGI [9]: 10.6 µM; GI50 [10]: < 0.0137 µM; TGI [10]: 10.2 µM

How did the GI50 [1] turn out when CC[C@@]1(O)C[C@H](OC2CC(N(C)C)C(OC3CC(O)C(OC4CCC(=O)C(C)O4)C(C)O3)C(C)O2)c2c(cc3c(c2O)C(=O)c2c(O)cccc2C3=O)[C@H]1C(=O)OC (stereo not given in full) was run?
Its GI50 is 0.00595 µM and 0.00275 µM.

What about the TGI [1] of the same compound?
The TGI was 0.249 µM and 1.07 µM.

And the GI50 [2]?
The GI50 was 0.00422 µM.

And the TGI [2]?
The TGI was 1.14 µM.

What about the TGI [3] of the same compound?
The TGI was 0.154 µM and 0.173 µM.

And the GI50 [5]?
The GI50 was 0.00681 µM and 0.0282 µM and 0.0236 µM.

What about the TGI [5] of the same compound?
The TGI was 0.165 µM and 0.0552 µM.

What about the TGI [8] of the same compound?
Its TGI is 0.42 µM and 1.73 µM.

And the TGI [9]?
The TGI was 0.135 µM.

And the TGI [6]?
The TGI was 0.144 µM and 0.279 µM.

For CC1CCP(=O)(c2ccccc2)c2ccccc21 (stereo not given), which TGI [1] is on record?
Its TGI is greater than 100 µM.

What about the TGI [2] of the same compound?
Its TGI is greater than 100 µM.

And the TGI [3]?
The TGI was greater than 100 µM.

What about the TGI [4] of the same compound?
Its TGI is greater than 100 µM.

What about the TGI [6] of the same compound?
The TGI was 58.5 µM.

Which results are given for Cc1ccc(S(=O)(=O)NCCNC2=CC(=O)c3nc4ccccc4c4ccnc2c34)cc1?
GI50 [7]: 19.2 µM; TGI [7]: 46.1 µM; GI50 [8]: 19.1 µM; TGI [8]: 51.5 µM; GI50 [9]: 27 µM; TGI [9]: 79.9 µM; GI50 [10]: 12.9 µM; TGI [10]: 32.7 µM

How did the GI50 [7] turn out when O=C(/C=C/C12c3ccccc3C(c3ccccc31)C1C(=O)N(c3ccccc3)C(=O)C12)c1ccccc1 (stereo not given) was run?
Its GI50 is 1.37 µM.

And the TGI [7]?
Its TGI is 3.02 µM.

And the GI50 [8]?
The GI50 was 2.14 µM.

And the TGI [8]?
Its TGI is 6.03 µM.

And the GI50 [9]?
The GI50 was 2.32 µM.

What about the TGI [9] of the same compound?
The TGI was greater than 100 µM.

What about the GI50 [10] of the same compound?
The GI50 was 1.48 µM.

What about the TGI [10] of the same compound?
The TGI was greater than 100 µM.

Which results are given for Cc1ccc(-c2cc(-c3ccco3)c(C#N)c(=O)[nH]2)cc1?
TGI [1]: > 100 µM; TGI [2]: > 100 µM; TGI [4]: > 100 µM; TGI [6]: > 100 µM

Which results are given for Cn1nc(-c2ccccc2)c(C(=O)/C=C/c2ccc(F)cc2)c(N2CCCCC2)c1=O?
TGI [1]: 19.2 µM; TGI [2]: 20.7 µM; TGI [3]: 17.1 µM; TGI [5]: 60.2 µM; TGI [6]: 35.3 µM

For O=C1c2ccc([N+](=O)[O-])cc2-c2c1c1ccccc1c(=O)n2CCCNCCCNCCCn1c2c(c3ccc([N+](=O)[O-])cc3c1=O)C(=O)c1ccccc1-2, which GI50 [7] is on record?
The GI50 was 4.91 µM.

What about the TGI [7] of the same compound?
The TGI was 37.2 µM.

And the GI50 [8]?
The GI50 was 0.667 µM.

What about the TGI [8] of the same compound?
Its TGI is 2.03 µM.

What about the GI50 [9] of the same compound?
Its GI50 is 1.43 µM.

What about the TGI [9] of the same compound?
Its TGI is 22.7 µM.

And the GI50 [10]?
The GI50 was 0.961 µM.

What about the TGI [10] of the same compound?
Its TGI is 4.55 µM.

Which results are given for COC[C@@H](N=CN1CCc2cc(OC)c(OC)cc2[C@@H]1C)C(C)(C)C?
TGI [1]: > 100 µM; TGI [2]: > 100 µM; TGI [3]: > 100 µM; TGI [5]: > 100 µM; TGI [6]: > 100 µM

Which TGI [1] does the source give for CS(=O)(=O)OCCN1CCN(C(=O)c2cccc3c(Nc4ccc(S(=O)(=O)N=C(N)N)cc4)c4ccccc4nc23)CC1 here?
Its TGI is greater than 100 µM.

And the TGI [3]?
Its TGI is greater than 100 µM.

What about the TGI [4] of the same compound?
The TGI was greater than 100 µM.

And the TGI [5]?
The TGI was greater than 100 µM.

What about the TGI [6] of the same compound?
Its TGI is greater than 100 µM.

What does the source list for COc1cc(/C=C\c2ccc(C)cc2)cc(OC)c1OC?
TGI [1]: 0.000535 µM; TGI [2]: 46.1 µM; TGI [3]: 20.8 µM; TGI [8]: 0.0843 µM; GI50 [9]: 0.0358 µM; GI50 [6]: 0.0127 µM; TGI [6]: > 100 µM; TGI [10]: > 100 µM

With O=C(/C=C/c1ccccc1)CC1OC(=O)c2ccccc21 (stereo not given) as the compound, how does the TGI [1] read?
The TGI was greater than 100 µM.

What about the TGI [2] of the same compound?
Its TGI is greater than 100 µM.

What about the TGI [3] of the same compound?
Its TGI is greater than 100 µM.

And the TGI [5]?
The TGI was greater than 100 µM.

And the TGI [6]?
Its TGI is greater than 100 µM.

C1C[OH+]CC[OH+]CCNCC[OH+]CC[OH+]CCN1.[Cl-].[Pt+4] was tested. Which GI50 [1] did it give?
The GI50 was greater than 100 µM.

What about the TGI [1] of the same compound?
The TGI was greater than 100 µM.

What about the GI50 [2] of the same compound?
Its GI50 is 63.7 µM.

What about the TGI [2] of the same compound?
The TGI was greater than 100 µM.

What does the source list for O=Nc1c(-c2c(O)[nH]c3ccc([N+](=O)[O-])cc23)[nH]c2ccc(O)cc12?
GI50 [7]: 0.463 µM; TGI [7]: > 100 µM; GI50 [8]: 0.305 µM; GI50 [9]: 0.345 µM; TGI [9]: > 100 µM; GI50 [10]: 0.247 µM; TGI [10]: > 100 µM

How did the GI50 [7] turn out when Cc1c(S(C)(=O)=O)c(-c2cc(F)cc(N3CCN(c4ccc(NS(=O)(=O)c5ccc(N[C@H](CCN6CCC(C(=O)OCCCP(=O)(O)O)CC6)CSc6ccccc6)c(S(=O)(=O)C(F)(F)F)c5)cc4)CC3)c2)c(-c2ccc(Cl)cc2)n1C(C)C was run?
Its GI50 is greater than 100 µM.

And the TGI [7]?
Its TGI is greater than 100 µM.

And the GI50 [8]?
The GI50 was greater than 100 µM.

What about the TGI [8] of the same compound?
The TGI was greater than 100 µM.

What about the GI50 [9] of the same compound?
The GI50 was greater than 100 µM.

And the TGI [9]?
Its TGI is greater than 100 µM.

And the GI50 [10]?
The GI50 was greater than 100 µM.

And the TGI [10]?
The TGI was greater than 100 µM.

What does the source list for COc1cc(/C=C2\CCC/C(=C\c3cc(OC)c(O)c(OC)c3)C2=O)cc(OC)c1O?
TGI [7]: 5.92 µM; TGI [8]: 6.01 µM; TGI [9]: > 100 µM; GI50 [10]: 4 µM; TGI [10]: 75 µM and > 100 µM

What does the source list for COc1ccc(NC(=O)C(=O)Cc2nc3ccc([N+](=O)[O-])cc3[nH]c2=O)c(OC)c1?
TGI [1]: > 100 µM; TGI [2]: > 100 µM; TGI [3]: > 100 µM; TGI [6]: > 100 µM

Which results are given for Nc1nc2c(c(=O)[nH]1)NC(CO)CN2 (stereo not given)?
TGI [3]: > 100 µM; TGI [5]: > 100 µM; TGI [6]: > 100 µM

What does the source list for COC(=O)C(C(=O)C(=O)Nc1ccc(C(F)(F)F)cc1[N+](=O)[O-])c1csc(-n2nc(-c3ccccc3)cc2-c2ccccc2)n1 (stereo not given)?
TGI [1]: > 100 µM; TGI [2]: > 100 µM; TGI [3]: > 100 µM; TGI [4]: > 100 µM; TGI [6]: > 100 µM

For CC(=O)NNc1nc(C)c(C(=O)NNC(=O)C(=O)Nc2c(C)cccc2C)s1, which TGI [1] is on record?
The TGI was greater than 100 µM.

And the TGI [2]?
Its TGI is greater than 100 µM.

And the TGI [4]?
The TGI was greater than 100 µM.

What about the TGI [6] of the same compound?
Its TGI is 79.7 µM.
